Results on five molecules are retold here after US7589099B2, “7-t-butoxyiminomethylcamptothecin conjugated in position 20 with integrin antagonists” (priority 2004, dated 2009).

Where two headings read alike, the source gives them in different places.

The target in one experiment is T1, purified αvβ3 receptor (Homo sapiens, UniProt P05106+P06756).
T1 construct: purchased Chemicon CC1020
Description: Binding to integrin αvβ3 receptors ([125I]echistatin competition). The protocol: (§1) An aliquot of 100 μl was added to 96-well plates and incubated overnight at +4° C. Plates were washed once with buffer (50 mM Tris, pH 7,4, 100 mM NaCl, 2 mM CaCl2, 1 mM MgCl2, 1 mM MnCl2, 1% bovine serum albumin) and then incubated for another 2 hours at room temperature. Plates were washed twice with the same buffer and incubated for 3 hours at room temperature with the radioactive ligand [^125I]echistatin (Amersham Pharmacia Biotech) 0.05 nM in the presence of competition ligands. At the end of incubation, the wells were washed and the radioactivity determined using a gamma counter (Packard). Non-specific binding of the ligand was determined in the presence of excess cold echistatin (1 μM).
(§2) The IC50 parameter was elaborated using “ALLFIT” software.

For experiment [1], the system named is PC3 human prostate carcinoma. Description: cells. Format: cell-based. As to the method: (§3) To evaluate the effect of the compound on survival cells, the sulphorodamine B test was used. To test the effects of the compounds on cell growth, PC3 human prostate carcinoma, A498 human renal carcinoma, A2780 human ovarian carcinoma cells and NCI-H460 non-small cell lung carcinoma were used. A2780, NCI-H460 and PC3 tumor cells were grown RPMI 1640 containing 10% fetal bovine serum (GIBCO), whereas A498 tumor cells were grown in EMEM containing 10% fetal bovine serum (GIBCO).
(§4) Tumor cells were seeded in 96-well tissue culture plates (Corning) at approximately 10% confluence and were allowed to attach and recover for at least 24 h. […] The plates were incubated for 72 h at 37° C. or 2 h followed by 72 h of recovery. At the end of the treatment, the plates were washed by removal of the surnatant and addition of PBS 3 times. 200 μl PBS and 50 μl of cold 80% TCA were added. The plates were incubated on ice for at least 1 h. TCA was removed, the plates were washed 3 times for immersion in distilled-water and dried on paper and at 40° C. for 5 min.
(§5) Then 200 μl of 0.4% sulphorodamine B in 1% acetic acid were added. The plates were incubated at room temperature for other 30 min. Sulphorodamine B was removed, the plates were washed for immersion in 1% acetic acid for 3 times, then they were dried on paper and at 40° C. for 5 min.
(§6) Then 200 μl Tris 10 mM were added, the plates were kept under stirring for 20 min. The survival cell was determined as optical density by a Multiskan spectrofluorimeter at 540 nm. The amount of cells killed was calculated as the percentage decrease in sulphorodamine B binding compared with control cultures.
(§7) The IC50 values were calculated with the “ALLFIT” program.

Another experiment concerns the target T2, purified αvβ5 receptor (Homo sapiens, UniProt P06756+P18084).
T2 construct: purchased Chemicon CC1020
Description: Binding to integrin αvβ5 receptors ([125I]echistatin competition). As to the method: as §1, with “7.4,” for “7,4,”, “0.15” for “0.05”, “Non-specific ligand” for “Non-specific”, “binding” for “binding of the ligand”
as §2

In experiment [2] the test system is A498 human renal carcinoma. Description: cells. Format: cell-based. The protocol:
as §3, §4, §5, §6, §7

The subject of experiment [3] is A2780 human ovarian carcinoma cells. In words: cells. Format: cell-based. As to the method:
as §3, §4, §5, §6, §7

In experiment [4] the test system is NCI-H460 non-small cell lung carcinoma. In words: Cytotoxicity, sulphorodamine B test, NCI-H460. To be noted: 2 h of treatment (followed by 72 h of recovery), read-out: NCI-H460 IC50 ± SD. Format: cell-based, human. As to the method:
as §3
Tumor cells were seeded in 96-well tissue culture plates (Corning) at approximately 10% confluence and were allowed to attach and recover for at least 24 h. […] The plates were incubated for 72 h at 37° C. or 2 h followed by 72 h of recovery. At the end of the treatment, the plates were washed by removal of the surnatant and addition of PBS 3 times. 200 μl PBS and 50 μl of cold 80% TCA were added. The plates were incubated on ice for at least 1 h. […]
as §6, §7

In general, IC50 refers to the point on the concentration scale where inhibition reaches its midpoint. On to `CC[C@@]1(OC(=O)[C@@H](NC(=O)[C@@H](N)CC(=O)NCc2ccc(C[C@@H]3NC(=O)C(Cc4ccccc4)NC(=O)[C@H](CC(=O)O)NC(=O)CNC(=O)[C@H](CCCNC(=N)N)NC3=O)cc2)C(C)C)C(=O)OCc2c1cc1n(c2=O)Cc2c-1nc1ccccc1c2/C=N/OC(C)(C)C` (stereo partly drawn) [ST2671], for which the IC50 at purified αvβ3 receptor was determined as 22.8 ± 1.2 nM; in experiment [1] (72 h) it was 350 ± 80 nM; at purified αvβ5 receptor it was 54.2 ± 0.5 nM. Moreover, the “PC3 IC50 ± SD” value in experiment [1] (72 h of treatment) is “potent cytotoxicity”.
For `CC[C@@]1(OC(=O)[C@@H](NC(=O)CCC(=O)NCc2ccc(C[C@@H]3NC(=O)C(Cc4ccccc4)NC(=O)[C@H](CC(=O)O)NC(=O)CNC(=O)[C@H](CCCNC(=N)N)NC3=O)cc2)C(C)C)C(=O)OCc2c1cc1n(c2=O)Cc2c-1nc1ccccc1c2/C=N/OC(C)(C)C` (stereo partly drawn) [ST2670], the 50% inhibitory concentration (IC50) on purified αvβ3 receptor was 47.7 ± 0.9 nM; in experiment [2] (72 h), 1600 ± 300 nM; in experiment [3] (72 h) it was 400 nM; in experiment [1] (72 h), 9600 ± 600 nM; on purified αvβ5 receptor it was 74 ± 0.8 nM.
`CC[C@@]1(OC(=O)[C@@H](NC(=O)[C@H](CC(=O)O)NC(=O)OC(C)(C)C)C(C)C)C(=O)OCc2c1cc1n(c2=O)Cc2c-1nc1ccccc1c2/C=N/OC(C)(C)C` [ST2676, 20-O-Val-Asp-gimatecan]: the IC50 in experiment [4] (Homo sapiens, NCI-H460) was 170 ± 20 nM; in experiment [2] (Homo sapiens, A498, 72 h of treatment, read-out: A498 IC50 ± SD), 47 ± 5 nM; in experiment [3] (Homo sapiens, A2780, 72 h of treatment, read-out: A2780 IC50 ± SD), less than 0.97 nM; in experiment [1] (Homo sapiens, 72 h of treatment, read-out: PC3 IC50 ± SD), 38 ± 4 nM.
On to 20-O-Val-gimatecan [ST2678], for which the IC50 in experiment [4] is 25 ± 2 nM.
`CN1C(=O)[C@@H](Cc2ccccc2)NC(=O)[C@H](CC(=O)O)NC(=O)CNC(=O)[C@H](CCCNC(=N)N)NC(=O)[C@@H]1Cc1ccc(CN)cc1` [ST2700]: the IC50 at purified αvβ5 receptor (RGD peptides, [125I]echistatin 0.15 nM, read-out: αvβ5 IC50 ± SD) was 0.9 ± 0.005 nM.
